Experiments:
[1] = Inhibition of [3H]- RTX binding to Vanilloid receptors from pig spinal cord
[2] = Inhibitory constant for RTX binding to porcine spinal cord

With `COc1cc(CC(=O)OCC2=C[C@H]3C4C(C)(C)[C@]4(OC(C)=O)[C@H](OC(=O)Cc4ccccc4)[C@@H](C)[C@]3(O)[C@@H]3C=C(C)C(=O)[C@@]3(O)C2)ccc1O` (stereo partly drawn) [Phenyl-acetic acid (1aR,1bS,4aR,7aS,7bS,8R,9R,9aS)-9a-acetoxy-4a,7b-dihydroxy-3-[2-(4-hydroxy-3-methoxy-phenyl)-acetoxymethyl]-1,1,6,8-tetramethyl-5-oxo-1a,1b,4,4a,5,7a,7b,8,9,9a-decahydro-1H-cyclopropa[3,4]benzo[1,2-e]azulen-9-yl ester] the Ki [1] was 2.1 µM and the Ki [2] was 0.00012 µM.

Source: BindingDB's records for doi:10.1021/jm960063l (Institute, 1996)
